From patent US8426442B2, “Compounds” (Xention Ltd, priority 2009, dated 2013)

Assays:
[1] = biological target: hKv1.3 (Homo sapiens, UniProt P22001); assay: hKv1.3 % inhibition; assay type: cell-based; conditions: for inhibition at 1 µM: read-out: hKv1.3 % inh. 1 uM
[2] = biological target: hKv1.5 (Homo sapiens, UniProt P22460); assay: hKv1.5 % inhibition; assay type: cell-based; conditions: for inhibition at 0.3 µM: read-out: hKv1.5 % inh. 300 nM
hKv1.5, sequence (P22460 whole entry): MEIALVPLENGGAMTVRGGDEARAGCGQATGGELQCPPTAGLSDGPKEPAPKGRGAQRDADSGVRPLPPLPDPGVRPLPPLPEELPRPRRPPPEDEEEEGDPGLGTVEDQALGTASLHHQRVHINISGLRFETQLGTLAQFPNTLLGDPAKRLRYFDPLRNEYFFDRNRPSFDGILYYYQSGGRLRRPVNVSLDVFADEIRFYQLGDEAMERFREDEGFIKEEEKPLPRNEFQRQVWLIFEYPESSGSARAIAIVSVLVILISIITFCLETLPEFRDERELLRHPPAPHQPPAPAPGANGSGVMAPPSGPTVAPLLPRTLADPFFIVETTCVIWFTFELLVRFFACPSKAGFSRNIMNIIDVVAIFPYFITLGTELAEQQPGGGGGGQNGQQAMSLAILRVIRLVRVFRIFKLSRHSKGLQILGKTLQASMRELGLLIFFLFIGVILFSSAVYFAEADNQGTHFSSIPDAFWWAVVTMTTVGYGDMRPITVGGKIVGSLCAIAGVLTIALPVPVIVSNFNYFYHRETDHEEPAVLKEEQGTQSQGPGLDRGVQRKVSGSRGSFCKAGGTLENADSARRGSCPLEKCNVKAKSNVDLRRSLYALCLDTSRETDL

hKv1.3, sequence (P22001 whole entry): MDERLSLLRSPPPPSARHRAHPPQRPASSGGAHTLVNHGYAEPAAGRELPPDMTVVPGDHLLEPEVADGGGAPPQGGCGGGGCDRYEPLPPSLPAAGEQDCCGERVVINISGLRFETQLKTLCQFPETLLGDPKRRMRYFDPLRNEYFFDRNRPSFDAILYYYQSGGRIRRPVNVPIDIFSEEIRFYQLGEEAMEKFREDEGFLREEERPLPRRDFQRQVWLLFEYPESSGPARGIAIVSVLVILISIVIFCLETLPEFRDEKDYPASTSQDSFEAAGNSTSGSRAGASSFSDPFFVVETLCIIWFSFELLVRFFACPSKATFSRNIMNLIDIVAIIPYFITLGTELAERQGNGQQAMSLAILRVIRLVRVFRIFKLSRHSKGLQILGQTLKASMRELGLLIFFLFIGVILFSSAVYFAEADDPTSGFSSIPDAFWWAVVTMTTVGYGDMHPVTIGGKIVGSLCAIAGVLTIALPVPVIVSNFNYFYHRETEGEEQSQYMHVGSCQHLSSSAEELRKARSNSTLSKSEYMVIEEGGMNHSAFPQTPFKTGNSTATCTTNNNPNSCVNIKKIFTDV

Compound | inhibition at 1 µM [1] [%] | inhibition at 0.3 µM [2] [%] | hKv1.3 % inh. 1 uM [1] [%] | hKv1.5 % inh. 300 nM [2] [%]
1-Methyl-1H-pyrazole-3-sulfonic acid (4-chloro-benzyl)-[1-(3-methoxy-propionyl)-2,3-dihydro-1H-indol-6-yl]-amide [Example 2] |  |  | 99.1 | 
1-Methyl-1H-pyrazole-3-sulfonic acid benzyl-[2-(2-cyano-acetyl)-1,2,3,4-tetrahydro-isoquinolin-6-yl]-amide [Example 9] |  |  | 71.6 | 27.6
1-Methyl-1H-pyrazole-3-sulfonic acid benzyl-[2-(2-methoxy-acetyl)-1,2,3,4-tetrahydro-isoquinolin-6-yl]-amide [Example 18] |  |  | 51.1 | 34.6
1-Methyl-1H-pyrazole-3-sulfonic acid benzyl-[2-(3-methoxy-propionyl)-1,2,3,4-tetrahydro-isoquinolin-6-yl]-amide [Example 12] |  |  | 64.3 | 41.7
1-Methyl-1H-pyrazole-3-sulfonic acid benzyl-[2-(pyridine-2-carbonyl)-1,2,3,4-tetrahydro-isoquinolin-6-yl]-amide [Example 17] |  |  | 54.8 | 36.7
COCC(=O)N1CCc2ccc(N(Cc3ccc(Cl)cc3)S(=O)(=O)c3ccn(C)n3)cc21 [Example 1, 1-Methyl-1H-pyrazole-3-sulfonic acid (4-chloro-benzyl)-[1-(2-methoxy-acetyl)-2,3-dihydro-1H-indol-6-yl]-amide] | 100 | 92.1 |  | 
CC(=O)N1CCc2ccc(N(Cc3ccc(Cl)cc3)S(=O)(=O)c3ccn(C)n3)cc21 [Example 3, 1-Methyl-1H-pyrazole-3-sulfonic acid (1-acetyl-2,3-dihydro-1H-indol-6-yl)-(4-chloro-benzyl)-amide] | 98 | 89.5 |  | 
CC(=O)N1CCc2cc(N(Cc3ccc(Cl)cc3)S(=O)(=O)c3ccn(C)n3)ccc21 [Example 4, 1-Methyl-1H-pyrazole-3-sulfonic acid (1-acetyl-2,3-dihydro-1H-indol-5-yl)-(4-chloro-benzyl)-amide] | 91.3 | 86.1 |  | 
COCCC(=O)N1CCc2cc(N(Cc3ccc(Cl)cc3)S(=O)(=O)c3ccn(C)n3)ccc21 [Example 5, 1-Methyl-1H-pyrazole-3-sulfonic acid (4-chloro-benzyl)-[1-(3-methoxy-propionyl)-2,3-dihydro-1H-indol-5-yl]-amide] | 90.7 | 65.2 |  | 
CC(=O)N1CCc2cc(N(Cc3ccc(Cl)cc3)S(=O)(=O)c3cn(C)cn3)ccc2C1 [Example 8, 1-Methyl-1H-imidazole-4-sulfonic acid(2-acetyl-1,2,3,4-tetrahydro-isoquinolin-6-yl)-(4-chlorobenzyl)-amide] |  |  | 73.3 | 25.2

Now from value to compound, other results behind:

inhibition at 1 µM [1] [%] | inhibition at 0.3 µM [2] [%] | Compound | hKv1.3 % inh. 1 uM [1] [%] | hKv1.5 % inh. 300 nM [2] [%]
85.4 | 37.1 | Cn1cnc(S(=O)(=O)N(Cc2ccc(Cl)cc2)c2ccc3c(c2)NCC3)c1 [Example 6, 1-Methyl-1H-imidazole-4-sulfonic acid (4-chloro-benzyl)-(2,3-dihydro-1H-indol-6-yl)-amide] |  | 
77.2 | 48.3 | Cn1ccc(S(=O)(=O)N(Cc2ccc(Cl)cc2)c2ccc3c(c2)CCN3C(=O)CC#N)n1 [Example 7, 1-Methyl-1H-pyrazole-3-sulfonic acid (4-chloro-benzyl)-[1-(2-cyano-acetyl)-2,3-dihydro-1H-indol-5-yl]-amide] |  | 
67.2 | 37.5 | CC(=O)N1CCc2cc(N(Cc3ccccc3)S(=O)(=O)c3ccn(C)n3)ccc2C1 [Example 10, 1-Methyl-1H-pyrazole-3-sulfonic acid (2-acetyl-1,2,3,4-tetrahydro-isoquinolin-6-yl)-benzyl-amide] |  | 
65.6 | 20.9 | COCCC(=O)N1CCc2ccc(N(Cc3ccc(Cl)cc3)S(=O)(=O)c3cn(C)cn3)cc21 [Example 11, 1-Methyl-1H-imidazole-4-sulfonic acid (4-chloro-benzyl)-[1-(3-methoxy-propionyl)-2,3-dihydro-1H-indol-6-yl]-amide] |  | 
64.2 | 66.6 | COCC(=O)N1CCc2cc(N(Cc3ccc(Cl)cc3)S(=O)(=O)c3ccn(C)n3)ccc21 [Example 13, 1-Methyl-1H-pyrazole-3-sulfonic acid (4-chloro-benzyl)-[1-(2-methoxy-acetyl)-2,3-dihydro-1H-indol-5-yl]-amide] |  | 
62.7 | 32.1 | COCC(=O)N1CCc2cc(N(Cc3ccc(Cl)cc3)S(=O)(=O)c3cn(C)cn3)ccc2C1 [Example 14, 1-Methyl-1H-imidazole-4-sulfonic acid (4-chloro-benzyl)-[2-(2-methoxy-acetyl)-1,2,3,4-tetrahydro-isoquinolin-6-yl]-amide] |  | 
61.1 | 20.5 | Cn1cnc(S(=O)(=O)N(Cc2ccc(Cl)cc2)c2ccc3c(c2)CCN3)c1 [Example 15, 1-Methyl-1H-imidazole-4-sulfonic acid (4-chloro-benzyl)-(2,3-dihydro-1H-indol-5-yl)-amide] |  | 
57.5 | 32.2 | COCCC(=O)N1CCc2cc(N(Cc3ccc(Cl)cc3)S(=O)(=O)c3cn(C)cn3)ccc2C1 [Example 16, 1-Methyl-1H-imidazole-4-sulfonic acid (4-chloro-benzyl)-[2-(3-methoxy-propionyl)-1,2,3,4-tetrahydro-isoquinolin-6-yl]-amide] |  | 
49.5 | 16.2 | Cn1cnc(S(=O)(=O)N(Cc2ccc(Cl)cc2)c2ccc3c(c2)CCN(C(=O)CO)C3)c1 [Example 19, 1-Methyl-1H-imidazole-4-sulfonic acid (4-chloro-benzyl)-[2-(2-hydroxy-acetyl)-1,2,3,4-tetrahydro-isoquinolin-6-yl]-amide] |  | 
48.5 | 13.4 | Cn1cnc(S(=O)(=O)N(Cc2ccc(Cl)cc2)c2ccc3c(c2)CCN(C(=O)CC#N)C3)c1 [Example 20, 1-Methyl-1H-imidazole-4-sulfonic acid (4-chloro-benzyl)-[2-(2-cyano-acetyl)-1,2,3,4-tetrahydro-isoquinolin-6-yl]-amide] |  | 
